ChEMBL document CHEMBL1201862, “PubChem BioAssay data set” (2004)
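In this assay, cells in 96-well plates receive the compound at five concentrations for 48 hours. Endpoints are linearly interpolated between the surrounding concentrations. The concentration for 50% growth inhibition is given as GI50.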 Activity calls are given as the source filed them. Rule as the data show it: active = GI50 up to about 1.1 µM and inactive = higher.

What was measured:
Experiment in all cases: NCI-60 cell line screen, 48 h
UACC-257 = system: UACC-257
Malme-3M = system: Malme-3M
HCT-116 = system: HCT-116
IGROV-1 = system: IGROV-1
SK-MEL-2 = system: SK-MEL-2
NCI-H23 = system: NCI-H23
RXF 393 = system: RXF 393
A498 = system: A498
HOP-62 = system: HOP-62
KM-20L2 = system: KM-20L2
OVCAR-8 = system: OVCAR-8
786-0 = system: 786-0
OVCAR-3 = system: OVCAR-3
DMS-114 = system: DMS-114
COLO 205 = system: COLO 205
UO-31 = system: UO-31
SF-268 = system: SF-268
CAKI-1 = system: CAKI-1
SN12C = system: SN12C
XF498 = system: XF498
SK-OV-3 = system: SK-OV-3
SK-MEL-5 = system: SK-MEL-5
OVCAR-4 = system: OVCAR-4
KM12 = system: KM12
EKVX = system: EKVX
SNB-78 = system: SNB-78
HT-29 = system: HT-29
HOP-18 = system: HOP-18
U-251 = system: U-251
SF-539 = system: SF-539
OVCAR-5 = system: OVCAR-5
SNB-19 = system: SNB-19
ACHN = system: ACHN
DMS-273 = system: DMS-273
SW-620 = system: SW-620
MOLT-4 = system: MOLT-4
NCI-H460 = system: NCI-H460
HL-60 = system: HL-60
NCI-H522 = system: NCI-H522
SK-MEL-28 = system: SK-MEL-28
A549 = system: A549
HOP-92 = system: HOP-92
SR = system: SR
DLD-1 = system: DLD-1
SF-295 = system: SF-295
K562 = system: K562
NCI-H226 = system: NCI-H226
CCRF-CEM = system: CCRF-CEM
M19-MEL = system: M19-MEL
SNB-75 = system: SNB-75
NCI/ADR-RES = system: NCI/ADR-RES
MCF7 = system: MCF7
RPMI-8226 = system: RPMI-8226
HCT-15 = system: HCT-15
HCC 2998 = system: HCC 2998
UACC-62 = system: UACC-62
LOX IMVI = system: LOX IMVI
LXFL 529 = system: LXFL 529
TK-10 = system: TK-10
M14 = system: M14

Measured: GI50

COc1ccc2c(c1)[n+]([O-])c(-c1cccc(Cl)c1)c(N)[n+]2[O-]
inactive: UACC-257 21.1 µM | Malme-3M 37.2 µM | HCT-116 38.5 µM | IGROV-1 46.8 µM | SK-MEL-2 18.7 µM | NCI-H23 23.9 µM | RXF 393 53.8 µM | A498 > 100 µM | HOP-62 > 100 µM | KM-20L2 37.8 µM | OVCAR-8 40.3 µM | 786-0 95.1 µM | OVCAR-3 36.2 µM | DMS-114 23.1 µM | COLO 205 16.6 µM | UO-31 89.3 µM | SF-268 33.8 µM | CAKI-1 62.4 µM | SN12C 48.4 µM | XF498 > 100 µM | SK-OV-3 95.9 µM | SK-MEL-5 19.2 µM | OVCAR-4 34.6 µM | KM12 48.6 µM | EKVX > 100 µM | SNB-78 79.8 µM | HT-29 41.5 µM | HOP-18 > 100 µM | U-251 37.3 µM | SF-539 31.3 µM | OVCAR-5 33.1 µM | SNB-19 > 100 µM | ACHN 57.3 µM | DMS-273 33.6 µM | SW-620 39.7 µM | MOLT-4 46 µM | NCI-H460 27.4 µM | HL-60 29 µM | NCI-H522 16.5 µM | SK-MEL-28 23.6 µM | A549 32.7 µM | HOP-92 > 100 µM | SR 43.6 µM | DLD-1 38.2 µM | SF-295 97.1 µM | K562 45.1 µM | NCI-H226 > 100 µM | CCRF-CEM 22.9 µM | M19-MEL 30.3 µM

Nc1cc(O)c2cc(/N=N/c3ccc(/N=N/c4ccc(/N=N/c5ccc6cc(S(=O)(=O)O)cc(S(=O)(=O)O)c6c5)c5ccccc45)c4cc(S(=O)(=O)O)ccc34)c(S(=O)(=O)O)cc2c1
42.4 µM: HCT-15
inactive: UACC-257 > 100 µM | Malme-3M > 100 µM | HCT-116 > 100 µM | SNB-75 49.1 µM | IGROV-1 > 100 µM | SK-MEL-2 > 100 µM | NCI-H23 > 100 µM | RXF 393 > 100 µM | A498 > 100 µM | HOP-62 > 100 µM | KM-20L2 > 10 µM | OVCAR-8 > 100 µM | OVCAR-3 67.6 µM | COLO 205 > 100 µM | UO-31 85.9 µM | SF-268 > 100 µM | SN12C > 100 µM | NCI/ADR-RES > 100 µM | XF498 > 100 µM | MCF7 > 100 µM | SK-OV-3 > 100 µM | SK-MEL-5 > 100 µM | OVCAR-4 > 100 µM | RPMI-8226 > 100 µM | KM12 > 100 µM | EKVX > 100 µM | SNB-78 > 100 µM | HT-29 > 90.2 µM | HOP-18 > 100 µM | U-251 > 100 µM | SF-539 > 100 µM | OVCAR-5 > 100 µM | SNB-19 > 100 µM | DMS-273 97.1 µM | SW-620 > 100 µM | MOLT-4 64.7 µM | NCI-H460 > 100 µM | HL-60 42.3 µM | HCC 2998 > 100 µM | NCI-H522 98.6 µM | SK-MEL-28 > 100 µM | UACC-62 > 100 µM | LOX IMVI > 100 µM | A549 96.8 µM | HOP-92 32.2 µM | DLD-1 > 100 µM | SF-295 > 53.2 µM | K562 > 31.6 µM | NCI-H226 36.7 µM | CCRF-CEM 61.5 µM | M19-MEL > 100 µM

O=C(NNc1ccc([N+](=O)[O-])cc1)C1OC(CO)C(O)C1O (stereo not given)
inactive: UACC-257 > 100 µM | Malme-3M > 100 µM | HCT-116 > 100 µM | SNB-75 > 100 µM | IGROV-1 > 100 µM | SK-MEL-2 > 100 µM | NCI-H23 > 100 µM | RXF 393 > 100 µM | A498 > 100 µM | HOP-62 > 100 µM | KM-20L2 > 100 µM | OVCAR-8 > 100 µM | 786-0 26.4 µM | OVCAR-3 > 100 µM | DMS-114 > 100 µM | COLO 205 > 100 µM | UO-31 > 100 µM | SF-268 > 100 µM | CAKI-1 > 100 µM | SN12C > 100 µM | XF498 > 100 µM | SK-OV-3 > 100 µM | SK-MEL-5 > 100 µM | OVCAR-4 > 100 µM | RPMI-8226 30.5 µM | KM12 81.8 µM | EKVX > 100 µM | SNB-78 > 100 µM | HT-29 59.8 µM | HOP-18 > 100 µM | LXFL 529 38.3 µM | U-251 > 100 µM | TK-10 > 100 µM | SF-539 > 100 µM | OVCAR-5 > 100 µM | SNB-19 > 100 µM | ACHN > 100 µM | DMS-273 > 100 µM | SW-620 21.8 µM | MOLT-4 > 100 µM | NCI-H460 > 100 µM | HL-60 58.9 µM | HCC 2998 > 100 µM | SK-MEL-28 > 100 µM | UACC-62 > 100 µM | LOX IMVI > 100 µM | A549 > 100 µM | HOP-92 > 100 µM | M14 > 100 µM | DLD-1 47.1 µM | SF-295 > 100 µM | K562 67 µM | NCI-H226 > 100 µM | CCRF-CEM 43.7 µM | M19-MEL > 100 µM
54.8 µM: HCT-15

COc1cc(/C=C/C(=O)O)ccc1C(=O)OCc1ccccc1
inactive: UACC-257 > 100 µM | Malme-3M > 100 µM | HCT-116 > 100 µM | SNB-75 > 100 µM | IGROV-1 > 100 µM | SK-MEL-2 > 100 µM | NCI-H23 > 100 µM | RXF 393 > 100 µM | A498 > 100 µM | HOP-62 > 100 µM | KM-20L2 > 100 µM | OVCAR-8 > 100 µM | OVCAR-3 > 100 µM | DMS-114 > 100 µM | COLO 205 > 100 µM | UO-31 > 100 µM | SF-268 > 100 µM | SN12C > 100 µM | NCI/ADR-RES > 100 µM | XF498 > 100 µM | MCF7 > 100 µM | SK-OV-3 > 100 µM | SK-MEL-5 > 100 µM | OVCAR-4 > 100 µM | RPMI-8226 > 100 µM | KM12 > 100 µM | EKVX > 100 µM | SNB-78 > 100 µM | HT-29 > 100 µM | HOP-18 > 100 µM | U-251 > 100 µM | SF-539 > 100 µM | OVCAR-5 > 100 µM | SNB-19 > 100 µM | DMS-273 > 100 µM | SW-620 > 100 µM | MOLT-4 > 100 µM | NCI-H460 > 100 µM | HL-60 > 100 µM | HCC 2998 > 100 µM | NCI-H522 > 100 µM | SK-MEL-28 > 100 µM | UACC-62 > 100 µM | LOX IMVI > 100 µM | A549 > 100 µM | HOP-92 > 100 µM | DLD-1 > 100 µM | SF-295 > 100 µM | K562 > 100 µM | NCI-H226 > 100 µM | CCRF-CEM > 100 µM | M19-MEL > 100 µM
> 100 µM: HCT-15
